Converted amounts (≈) assume the structure as drawn.
Assay: Solubility of indirubin derivative in oils and surfactants (LC/MS/MS)
Assay type: physicochemical
Details: thermodynamic from solid, 72 hours at 37° C.
Procedure: To determine emulsion solution, solubility of indirubin derivative, embodiment 2 is measured in the several oil and surfactants. After enough amount of indirubin derivative powder made from manufacturing example 2 is putted into each oil or surfactants (1 ml), it was into vortexing 30 min. The equilibrium state was reached by shaking for 72 hours at 37° C. with 50 rpm speed in an incubator, then centrifuged at 16,100×g for 5 min. The supernatant was diluted with methanol and analyzed by LC/MS/MS. The kind of above oil or surfactants and measured solubility are shown below table 1.
‘Waters xevo TQ MS-ACQUITY UPLC System’ is used as an analyses equipment. ACQUITY UPLC® BEH (C18, 1.7 μm, 2.1×50 mm) column was used for analyses at room temperature. Mobile phase is used after filtration of deionized distilled water including 0.1% formic acid and acetonitrile including 0.1% formic acid (30:70, v/v) with […] membrane filter. The flow rate is 0.25 ml/min and it is analyzed by injection of 0.5 μl sample. There are LC/MS/MS conditions for Decursin analysis; Cone 38 V, Collison 32 V. Precursor ion and daughter ion are monitored 329 and 229 m/z, respectively.

SMILES: CO/N=C1/C(=C2/C(=O)Nc3cc(Cl)c(Cl)cc32)Nc2ccccc21 [Embodiment A3051, 5,6-dichloroindirubin-3′-methoxime]
- solubility at 72 h (aqueous with cosolvent or surfactant or cyclodextrin, in Kolliphor EL): 5400 µg/mL (≈ 15 mM)
- solubility at 72 h (aqueous with cosolvent or surfactant or cyclodextrin, in Tween 20): 4580 µg/mL (≈ 12.7 mM)
- solubility at 72 h (aqueous with cosolvent or surfactant or cyclodextrin, in Tween 80): 4920 µg/mL (≈ 13.7 mM)
- solubility at 72 h (oil or lipid, in Olive oil): 830 µg/mL (≈ 2.3 mM)
- solubility at 72 h (oil or lipid, in Sunflower oil): 1350 µg/mL (≈ 3.75 mM)
- solubility at 72 h (organic solvent or mixture, in PEG 400): 3100 µg/mL (≈ 8.61 mM)
- solubility at 72 h (organic solvent or mixture, in Propylene glycol): 250 µg/mL (≈ 0.694 mM)
- solubility at 72 h (organic solvent or mixture, in Transcutor P): 1150 µg/mL (≈ 3.19 mM)
